The results in this text go back to US6117841A, “Substituted peptidylamine calcium channel blockers” (Warner-Lambert Company, priority 1999, dated 2000).

Structures are written as SMILES.

One assay deals with T1, N-type Ca^2+ Channel (Homo sapiens, UniProt Q00975).
T1 construct: host or cells: IMR-32 cells differentiated with dibutyryl cAMP and bromodeoxyuridine
T1 sequence (Q00975 whole entry): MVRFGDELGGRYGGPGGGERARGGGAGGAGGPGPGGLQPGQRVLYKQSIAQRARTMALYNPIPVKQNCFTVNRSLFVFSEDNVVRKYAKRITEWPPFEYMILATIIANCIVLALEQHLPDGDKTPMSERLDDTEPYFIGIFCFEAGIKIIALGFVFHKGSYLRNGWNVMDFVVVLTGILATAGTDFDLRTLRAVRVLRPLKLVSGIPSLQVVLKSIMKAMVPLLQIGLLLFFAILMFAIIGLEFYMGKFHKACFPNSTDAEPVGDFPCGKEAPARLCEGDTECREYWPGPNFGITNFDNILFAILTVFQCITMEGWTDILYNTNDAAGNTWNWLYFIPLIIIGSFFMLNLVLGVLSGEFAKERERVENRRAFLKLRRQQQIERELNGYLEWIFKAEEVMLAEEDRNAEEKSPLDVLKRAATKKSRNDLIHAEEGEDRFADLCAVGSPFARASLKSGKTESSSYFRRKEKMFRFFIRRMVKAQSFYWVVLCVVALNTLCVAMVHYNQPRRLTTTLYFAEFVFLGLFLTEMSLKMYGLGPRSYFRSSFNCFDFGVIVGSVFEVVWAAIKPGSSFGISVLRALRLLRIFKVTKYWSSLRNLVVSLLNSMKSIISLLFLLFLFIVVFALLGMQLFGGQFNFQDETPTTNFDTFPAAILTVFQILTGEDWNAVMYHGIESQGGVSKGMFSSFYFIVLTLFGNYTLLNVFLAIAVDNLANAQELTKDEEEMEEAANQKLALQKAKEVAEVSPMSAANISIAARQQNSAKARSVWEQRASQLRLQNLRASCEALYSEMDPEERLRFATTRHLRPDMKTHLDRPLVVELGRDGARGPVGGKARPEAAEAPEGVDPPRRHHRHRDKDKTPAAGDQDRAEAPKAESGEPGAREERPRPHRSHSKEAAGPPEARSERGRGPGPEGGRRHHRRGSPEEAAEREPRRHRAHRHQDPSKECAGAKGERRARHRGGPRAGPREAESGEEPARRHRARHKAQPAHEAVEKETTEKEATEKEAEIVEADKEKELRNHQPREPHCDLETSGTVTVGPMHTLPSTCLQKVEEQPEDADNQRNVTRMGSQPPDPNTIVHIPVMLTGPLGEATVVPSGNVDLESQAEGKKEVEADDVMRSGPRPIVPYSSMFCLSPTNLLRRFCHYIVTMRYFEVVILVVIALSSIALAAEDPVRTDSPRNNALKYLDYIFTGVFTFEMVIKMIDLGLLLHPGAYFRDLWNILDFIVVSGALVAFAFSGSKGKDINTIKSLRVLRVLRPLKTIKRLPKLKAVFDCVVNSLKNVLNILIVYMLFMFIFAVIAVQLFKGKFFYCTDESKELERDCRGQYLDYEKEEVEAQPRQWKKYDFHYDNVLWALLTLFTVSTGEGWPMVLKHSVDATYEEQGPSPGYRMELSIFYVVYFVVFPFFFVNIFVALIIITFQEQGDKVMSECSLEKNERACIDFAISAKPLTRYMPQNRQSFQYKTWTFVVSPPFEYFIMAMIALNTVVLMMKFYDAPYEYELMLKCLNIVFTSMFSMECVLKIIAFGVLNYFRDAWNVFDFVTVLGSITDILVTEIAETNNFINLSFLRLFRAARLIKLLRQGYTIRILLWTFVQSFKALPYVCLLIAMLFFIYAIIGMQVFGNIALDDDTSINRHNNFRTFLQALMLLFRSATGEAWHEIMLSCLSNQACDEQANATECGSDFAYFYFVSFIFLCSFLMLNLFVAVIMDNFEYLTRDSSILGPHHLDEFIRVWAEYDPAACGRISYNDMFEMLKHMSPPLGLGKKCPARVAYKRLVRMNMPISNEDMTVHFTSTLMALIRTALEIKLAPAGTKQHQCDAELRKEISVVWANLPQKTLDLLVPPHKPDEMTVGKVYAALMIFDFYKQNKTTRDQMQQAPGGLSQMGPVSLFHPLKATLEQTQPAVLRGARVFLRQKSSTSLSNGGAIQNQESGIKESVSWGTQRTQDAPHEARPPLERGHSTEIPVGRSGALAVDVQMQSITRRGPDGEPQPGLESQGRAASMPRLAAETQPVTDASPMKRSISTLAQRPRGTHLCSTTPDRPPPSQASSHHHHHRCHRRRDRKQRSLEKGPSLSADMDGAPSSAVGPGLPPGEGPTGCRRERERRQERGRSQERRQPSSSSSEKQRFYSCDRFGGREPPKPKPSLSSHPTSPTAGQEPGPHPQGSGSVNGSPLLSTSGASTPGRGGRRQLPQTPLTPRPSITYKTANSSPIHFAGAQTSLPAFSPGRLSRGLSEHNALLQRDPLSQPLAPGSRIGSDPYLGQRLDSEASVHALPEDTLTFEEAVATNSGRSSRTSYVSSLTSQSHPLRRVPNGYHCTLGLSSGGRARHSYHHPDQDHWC
T1 sequence (P54284 whole entry partner): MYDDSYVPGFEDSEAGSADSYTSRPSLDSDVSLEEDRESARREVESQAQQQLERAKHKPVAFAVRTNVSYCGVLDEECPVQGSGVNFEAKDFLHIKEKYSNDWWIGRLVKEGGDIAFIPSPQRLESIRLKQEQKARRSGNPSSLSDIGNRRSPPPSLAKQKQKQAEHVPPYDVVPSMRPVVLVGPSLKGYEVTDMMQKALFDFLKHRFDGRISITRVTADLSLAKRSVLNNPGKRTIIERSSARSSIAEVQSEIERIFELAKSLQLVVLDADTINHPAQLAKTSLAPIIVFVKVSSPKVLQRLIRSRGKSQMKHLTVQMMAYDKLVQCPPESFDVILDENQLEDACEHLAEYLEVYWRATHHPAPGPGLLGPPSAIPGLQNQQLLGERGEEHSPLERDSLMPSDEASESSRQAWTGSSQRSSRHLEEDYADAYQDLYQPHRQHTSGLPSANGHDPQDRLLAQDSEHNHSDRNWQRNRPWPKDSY
T1 sequence (P54289 25-946 partner limits assumed): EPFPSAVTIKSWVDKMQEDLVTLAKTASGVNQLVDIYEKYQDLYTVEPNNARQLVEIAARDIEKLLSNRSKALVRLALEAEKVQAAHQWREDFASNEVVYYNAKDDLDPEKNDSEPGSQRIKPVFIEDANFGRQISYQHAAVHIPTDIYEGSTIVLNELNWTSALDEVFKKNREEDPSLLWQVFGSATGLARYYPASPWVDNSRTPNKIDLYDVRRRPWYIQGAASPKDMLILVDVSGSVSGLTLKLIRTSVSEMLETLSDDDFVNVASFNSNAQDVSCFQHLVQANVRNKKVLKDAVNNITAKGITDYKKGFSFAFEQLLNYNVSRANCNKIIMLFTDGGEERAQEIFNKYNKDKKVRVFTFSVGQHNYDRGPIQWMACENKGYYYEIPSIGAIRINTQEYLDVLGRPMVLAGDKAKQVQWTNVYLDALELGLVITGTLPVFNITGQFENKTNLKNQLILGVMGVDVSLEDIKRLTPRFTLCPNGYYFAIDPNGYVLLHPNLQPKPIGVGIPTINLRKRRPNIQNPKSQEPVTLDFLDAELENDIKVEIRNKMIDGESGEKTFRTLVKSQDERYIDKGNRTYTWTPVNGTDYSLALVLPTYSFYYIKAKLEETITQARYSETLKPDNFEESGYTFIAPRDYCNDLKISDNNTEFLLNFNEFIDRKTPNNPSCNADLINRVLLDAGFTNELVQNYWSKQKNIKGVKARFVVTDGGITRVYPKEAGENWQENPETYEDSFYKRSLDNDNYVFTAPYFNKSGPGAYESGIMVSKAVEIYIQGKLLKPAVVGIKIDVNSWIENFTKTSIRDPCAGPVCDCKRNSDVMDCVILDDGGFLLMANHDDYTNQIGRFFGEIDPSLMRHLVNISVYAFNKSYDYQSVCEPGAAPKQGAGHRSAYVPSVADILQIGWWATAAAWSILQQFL
T1 sequence (P54289 947-1103 partner limits assumed): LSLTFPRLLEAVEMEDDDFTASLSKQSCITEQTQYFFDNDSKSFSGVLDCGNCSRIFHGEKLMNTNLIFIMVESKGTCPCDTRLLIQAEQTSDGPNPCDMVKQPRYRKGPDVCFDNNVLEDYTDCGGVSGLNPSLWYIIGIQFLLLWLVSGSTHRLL
In words: Measurement of N-type Ca2+ channel blocking potencies in IMR-32 cells using the fluorescent Ca2+ indicator Indo-1. Type of assay: cell-based. Particulars: 1 μM; IMR-32 cells, 5 μM nitrendipine. In outline: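 IMR-32 cells were differentiated 7–13 days (1 mM dibutyryl cAMP, 2.5 µM BrdU) and Indo-1-loaded. They were preincubated 10 min at 30 °C with compound and 5 µM nitrendipine in HEPES/Tris pH 7.4 HBSS with 0.5% BSA, then KCl/CaCl2-depolarized. The peak-minus-basal 400/490 nm emission ratio gave IC50 by four-parameter logistic fit.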
For the molecule `CC(C)C[C@@H](C(=O)N[C@@H](Cc1ccc(OCc2ccccc2)cc1)C(=O)NC(C)(C)C)N1CCOCC1` (relative stereo) [Example 94, [S-(R*,R*)]-4-Methyl-2-morpholin-4-yl-pentanoic acid [2-(4-benzyloxy-phenyl)-1-tert-butylcarbamoyl-ethyl]-amide], the “IMR 32 % of Blockade @ 1 μM” value was 24%.
As to `CC(C)C[C@@H](C(=O)N[C@@H](Cc1ccc(OCc2ccccc2)cc1)C(=O)NC(C)(C)C)N(C)Cc1cccnc1` (relative stereo) [Example 101, [S-(R*,R*)]-4-Methyl-2-(methyl-pyridin-3-ylmethyl-amino)-pentanoic acid [2-(4-benzyloxy-phenyl)-1-tert-butylcarbamoyl-ethyl]-amide], the “IMR 32 % of Blockade @ 1 μM” value is 26%.

Still in this assay, the particulars now being: IMR-32 cells, 5 μM nitrendipine; Examples 116-140; read-out: IMR 32% of Blockade @.
As to `CC(C)CCN(C)[C@@H](CC(C)C)C(=O)N[C@@H](Cc1ccc(OCc2ccccc2)cc1)C(=O)NC(C)(C)CO` (relative stereo) [Example 116, [S-(R*,R*)]4-Methyl-2-[methyl-(3-methylbutyl)-amino]-pentanoic acid [2-(4-benzyloxy-phenyl)-1-(2-hydroxy-1,1-dimethyl-ethylcarbamoyl)-ethyl]-amide], the IC50 was determined as 1400 nM.
As to `CC(C)CCN(C)[C@@H](CC(C)C)C(=O)N[C@@H](Cc1ccc(OCc2ccccc2)cc1)C(=O)NCCN1CCCCC1` (relative stereo) [Example 117, [S-(R*,R*)]-4-Methyl-2-[methyl-(3-methylbutyl)-amino]-pentanoic acid [2-(4-benzyloxy-phenyl)-1-(2-piperidin-1-yl-ethylcarbamoyl)-ethyl]-amide], the IC50 was determined as 640 nM.
In the case of `CC(C)CCN(C)[C@@H](CC(C)C)C(=O)N[C@@H](Cc1ccc(OCc2ccccc2)cc1)C(=O)NCCCN1CCCC1=O` (relative stereo) [Example 118, [S-(R*,R*)]-4-Methyl-2-[methyl-(3-methyl-butyl)-amino]-pentanoic acid {2-(4-benzyloxy-phenyl)-1-[3-(2-oxo-pyrrolidin-1-yl)-propylcarbamoyl]-ethyl}-amide], the IC50 was 1900 nM.
As to `CC(C)C[C@@H](C(=O)N[C@@H](Cc1ccc(OCc2ccccc2)cc1)C(=O)NCCc1ccccn1)N1CCOCC1` (relative stereo) [Example 120, [S-(R*,R*)]-4-Methyl-2-morpholin-4yl-pentanoic acid [2-(4-benzyloxy-phenyl)-1-(2-pyridin-2-yl-ethylcarbamoyl)-ethyl]-amide], the IC50 is 6000 nM.

Still in this assay, the particulars now being: IMR-32 cells, K+ depolarization, 5 μM nitrendipine to block L-type channels; read-out: IMR 32 IC50.
In the case of `CC(C)C[C@H](NC1CCOCC1)C(=O)N[C@@H](Cc1ccc(OCc2ccccc2)cc1)C(=O)NCCNCc1ccccc1` (relative stereo) [Example 71, [S-(R*,R*)]-4-Methyl-2-(tetrahydro-pyran-4-ylamino)-pentanoic acid [1-(2-benzylamino-ethylcarbamoyl)-2-(4-benzyloxy-phenyl)-ethyl]-amide], the IC50 was 700 nM.
On to `CC(C)C[C@H](NC1CCOCC1)C(=O)N[C@@H](Cc1ccc(OCc2ccccc2)cc1)C(=O)N1CCSCC1` (relative stereo) [Example 72, [S-(R*,R*)]-4-Methyl-2-(tetrahydro-pyran-4-ylamino)-pentanoic acid [1-(4-benzyloxy-benzyl)-2-oxo-2-thiomorpholin-4-yl-ethyl]-amide], for which the IC50 came out at 1200 nM.
As for `CCC(COC)NC(=O)[C@H](Cc1ccc(OCc2ccccc2)cc1)NC(=O)[C@H](CC(C)C)NC1CCOCC1` (relative stereo) [Example 75, [S-(R*,R*)]-4-Methyl-2-(tetrahydro-pyran-4-ylamino)-pentanoic acid [2-(4-benzyloxy-phenyl)-1-(1-methoxymethyl-propylcarbamoyl)-ethyl]-amide], the IC50 was 2400 nM.
Turning to `CC(C)C[C@H](NC1CCOCC1)C(=O)N[C@@H](Cc1ccc(OCc2ccccc2)cc1)C(=O)NC1CCN(Cc2ccccc2)C1` (relative stereo) [Example 76, [S-(R*,R*)]-4-Methyl-2-(tetrahydro-pyran4-ylamino)-pentanoic acid [2-(4-benzyloxy-phenyl)-1-(1-benzyl-pyrrolidin-3-ylcarbamoyl)-ethyl]-amide], the IC50 worked out at 600 nM.
Turning to `CC(C)C[C@H](NC1CCOCC1)C(=O)N[C@@H](Cc1ccc(OCc2ccccc2)cc1)C(=O)NCCN1CCCCC1` (relative stereo) [Example 77, [S-(R*,R*)]-4-Methyl-2-(tetrahydro-pyran-4-ylamino)-pentanoic acid [2-(4-benzyloxy-phenyl)-1-(2-piperidin-1-yl-ethylcarbamoyl)-ethyl]-amide], the IC50 is 2600 nM.
Take `CC(C)C[C@H](NC1CCOCC1)C(=O)N[C@@H](Cc1ccc(OCc2ccccc2)cc1)C(=O)N1CCCCC1` (relative stereo) [Example 79, [S-(R*,R*)]-4-Methyl-2-(tetrahydro-pyran-4-ylamino)-pentanoic acid [1-(4-benzyloxy-benzyl)-2-oxo-2-piperidin-1-yl-ethyl]-amide]: the IC50 turned out to be 2100 nM.
Still for that read-out and setting: to `CC(C)C[C@@H](C(=O)N[C@@H](Cc1ccc(OCc2ccccc2)cc1)C(=O)NC(C)(C)C)N(C)Cc1ccc(Br)cc1` (relative stereo) [Example 81, [S-(R*,R*)]-2-[(4-Bromo-benzyl)-methyl-amino]4-methyl-pentanoic acid [2-(4-benzyloxy-phenyl)-1-tert-butylcarbamoyl-ethyl]-amide] belongs 160 nM.
For `CC(C)C[C@@H](C(=O)N[C@@H](Cc1ccc(OCc2ccccc2)cc1)C(=O)NC(C)(C)C)N(C)Cc1ccc(O)cc1` (relative stereo) [Example 82, [S-(R*,R*)]-2-[(4-Hydroxy-benzyl)-methyl-amino]-4-methyl-pentanoic acid [2-(4-benzyloxy-phenyl)-1-tert-butylcarbamoyl-ethyl]-amide], the IC50 amounted to 1300 nM.
In the case of `CC(C)C[C@@H](C(=O)N[C@@H](Cc1ccc(OCc2ccccc2)cc1)C(=O)NC(C)(C)C)N(C)Cc1ccncc1` (relative stereo) [Example 83, [S-(R*,R*)]-4-Methyl-2-(methyl-pyridin4-ylmethyl-amino)-pentanoic acid [2-(4-benzyloxy-phenyl)-1-tert-butylcarbamoyl-ethyl]-amide], the IC50 was 1300 nM.
Regarding `CC(C)C[C@@H](C(=O)N[C@@H](Cc1ccc(OCc2ccccc2)cc1)C(=O)NC(C)(C)C)N(C)C(C)C` (relative stereo) [Example 86, [S-(R*,R*)]-2-(Isopropyl-methyl-amino)-4-methyl-pentanoic acid [2-(4-benzyloxy-phenyl)-1-tert-butylcarbamoyl-ethyl]-amide], the IC50 came to 2800 nM.
On to `CC(C)C[C@@H](C(=O)N[C@@H](Cc1ccc(OCc2ccccc2)cc1)C(=O)NC(C)(C)C)N(C)C1CCOCC1` (relative stereo) [Example 87, [S-(R*,R*)]-4-Methyl-2-[methyl-(tetrahydro-pyran-4-yl)-amino]-pentanoic acid [2-(4-benzyloxy-phenyl)-1-tert-butylcarbamoyl-ethyl]-amide], for which the IC50 turned out to be 3100 nM.
The same measure, in the same setting: to `CC(C)C[C@@H](C(=O)N[C@@H](Cc1ccc(OCc2ccccc2)cc1)C(=O)NC(C)(C)C)N(C)Cc1ccc[nH]1` (relative stereo) [Example 89, [S-(R*,R*)]-4-Methyl-2-[methyl-(1H-pyrrol-2-ylmethyl)-amino]-pentanoic acid [2-(4-benzyloxy-phenyl)-1-tert-butylcarbamoyl-ethyl]-amide] belongs 1000 nM; to `CC(C)C[C@H](NCC1CCCCC1)C(=O)N[C@@H](Cc1ccc(OCc2ccccc2)cc1)C(=O)OC(C)(C)C` (relative stereo) [Example 91, [S-(R*,R*)]-3-(4Benzyloxy-phenyl)-2-[2-(cyclohexylmethyl-amino)-4-methyl-pentanoylamino]-propionic acid tert-butyl ester], 300 nM; to `CCOC(=O)CN(C)[C@@H](CC(C)C)C(=O)N[C@@H](Cc1ccc(OCc2ccccc2)cc1)C(=O)NC(C)(C)C` (relative stereo) [Example 96, [S-(R*,R*)]-({1-[2-(4-Benzyloxy-phenyl)-1-tert-butylcarbamoyl-ethylcarbamoyl]-3-methyl-butyl}-methyl-amino)-acetic acid ethyl ester], 4400 nM.
Still for that read-out and setting: with `COc1ccc(CN(C)[C@@H](CC(C)C)C(=O)N[C@@H](Cc2ccc(OCc3ccccc3)cc2)C(=O)NC(C)(C)C)cc1` (relative stereo) [Example 98, [S-(R*,R*)]-2-[(4-Methoxy-benzyl)-methyl-amino]-4-methyl-pentanoic acid [2-(4-benzyloxy-phenyl)-1-tert-butylcarbamoyl-ethyl]-amide] the figure was 400 nM; with `CC(C)C[C@@H](C(=O)N[C@@H](Cc1ccc(OCc2ccccc2)cc1)C(=O)NC(C)(C)C)N1CCCCC1` (relative stereo) [Example 99, [S-(R*,R*)]-4-Methyl-2-piperidin-1-yl-pentanoic acid [2-(4-benzyloxy-phenyl)-1-tert-butylcarbamoyl-ethyl]-amide], 1400 nM; with `CCN[C@@H](CC(C)C)C(=O)N[C@@H](Cc1ccc(OCc2ccccc2)cc1)C(=O)NC(C)(C)C` (relative stereo) [Example 100, [S-(R*,R*)]-2-Ethylamino-4-methyl-pentanoic acid [2-(4-benzyloxy-phenyl)-1-tert-butylcarbamoyl-ethyl]-amide], 2000 nM.
On the same count and under the same terms, to `CC(C)CCN[C@@H](CC(C)C)C(=O)N[C@@H](Cc1ccc(OCc2ccccc2)cc1)C(=O)NC(C)(C)C` (relative stereo) [Example 105, [S-(R*,R*)]-4-Methyl-2-(3-methyl-butylamino)-pentanoic acid [2-(4-benzyloxy-phenyl)-1-tert-butylcarbamoyl-ethyl]-amide] belongs 240 nM.
